Assay results: patent US20240287076A1, “COMPOUNDS FOR TARGETING DEGRADATION OF BRUTON'S TYROSINE KINASE” (BIOGEN MA INC., priority 2021, published 2024)

What follows are compounds tested against T1, BTK (Homo sapiens, UniProt Q06187) (assay: BTK degradation assay using the HiBiT Method (Nano-Glo HiBiT Lytic Assay, GM01501.3 cells)). Conditions: HiBiT Degradation on GM01501.3 BTK @ 6 hours.
T1 construct: The GM01501.3 cell line endogenously expresses BTK with a HiBiT fusion tag via CRISPR knock-in at its C-terminal region; endogenous in cells; host or cells: GM01501.3 (GM01501 cells engineered by CRISPR knock-in of HiBiT at the BTK locus)
Assay type: cell-based
Method in brief: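 CRISPR knock-in GM01501.3 cells expressing endogenous BTK with C-terminal HiBiT tag, treated 6 h at 37 °C with compounds, 11-point half-log titration from 10 μM top, duplicates. Remaining BTK quantified by Nano-Glo HiBiT lytic luminescence versus DMSO controls; DC50 reported.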

T1 sequence (Q06187 whole entry, the tested form may be a part): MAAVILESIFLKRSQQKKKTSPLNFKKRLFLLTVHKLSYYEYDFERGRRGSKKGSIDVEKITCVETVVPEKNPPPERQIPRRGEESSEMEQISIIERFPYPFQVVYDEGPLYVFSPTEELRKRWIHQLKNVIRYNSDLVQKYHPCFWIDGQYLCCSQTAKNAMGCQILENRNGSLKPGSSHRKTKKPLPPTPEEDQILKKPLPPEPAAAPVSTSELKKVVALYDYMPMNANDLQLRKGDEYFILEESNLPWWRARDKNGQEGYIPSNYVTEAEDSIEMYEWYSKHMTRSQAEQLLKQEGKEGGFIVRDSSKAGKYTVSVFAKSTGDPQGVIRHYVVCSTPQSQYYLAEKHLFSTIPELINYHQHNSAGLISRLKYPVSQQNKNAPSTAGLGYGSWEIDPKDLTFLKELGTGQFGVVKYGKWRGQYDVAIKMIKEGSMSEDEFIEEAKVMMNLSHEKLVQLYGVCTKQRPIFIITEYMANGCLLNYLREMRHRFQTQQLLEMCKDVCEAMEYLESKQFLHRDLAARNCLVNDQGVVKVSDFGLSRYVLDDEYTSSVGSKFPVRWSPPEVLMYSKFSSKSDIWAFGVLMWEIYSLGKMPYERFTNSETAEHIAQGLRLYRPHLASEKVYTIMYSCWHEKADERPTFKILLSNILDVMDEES

SMILES | DC50 [µM]
Cc1cc(-c2ncnn3cc(CCCCN4CCC(c5ccc(N6CCC(=O)NC6=O)cc5)CC4)cc23)ccc1CNC(=O)c1noc(C(C)(C)C)n1 [Example 129, 5-tert-butyl-N-[[4-[6-[4-[4-[4-(2,4-dioxohexahydropyrimidin-1-yl)phenyl]-1-piperidyl]butyl]pyrrolo[2,1-f][1,2,4]triazin-4-yl]-2-methyl-phenyl]methyl]-1,2,4-oxadiazole-3-carboxamide] | < 0.1
Cc1cc(-c2ncnn3cc(CCCCN4CCC(c5ccc(NC6CCC(=O)NC6=O)cc5)CC4)cc23)ccc1CNC(=O)c1noc(C(C)(C)C)n1 (stereo not drawn) [Example 130, 5-tert-butyl-N-[[4-[6-[4-[4-[4-[(2,6-dioxo-3-piperidyl)amino]phenyl]-1-piperidyl]butyl]pyrrolo[2,1-f][1,2,4]triazin-4-yl]-2-methyl-phenyl]methyl]-1,2,4-oxadiazole-3-carboxamide] | < 0.1
Cc1cc(-c2ncnn3cc(CCCCN4CCN(c5ccc(NC6CCC(=O)NC6=O)cc5)CC4)cc23)ccc1CNC(=O)c1noc(C(C)(C)C)n1 (stereo not drawn) [Example 131, 5-tert-butyl-N-[[4-[6-[4-[4-[4-[(2,6-dioxo-3-piperidyl)amino]phenyl]piperazin-1-yl]butyl]pyrrolo[2,1-f][1,2,4]triazin-4-yl]-2-methyl-phenyl]methyl]-1,2,4-oxadiazole-3-carboxamide] | < 0.1
Cc1cc(-c2ncnn3cc(CCCCN4CCC(c5ccc(NC6CCC(=O)NC6=O)cc5)C(F)(F)C4)cc23)ccc1CNC(=O)c1noc(C(C)(C)C)n1 (stereo not drawn) [Example 132, 5-tert-butyl-N-[[4-[6-[4-[4-[4-[(2,6-dioxo-3-piperidyl)amino]phenyl]-3,3-difluoro-1-piperidyl]butyl]pyrrolo[2,1-f][1,2,4]triazin-4-yl]-2-methyl-phenyl]methyl]-1,2,4-oxadiazole-3-carboxamide] | < 0.1
Cc1cc(-c2ncnn3cc(CCCCN4CCC(c5ccc6c(N7CCC(=O)NC7=O)nn(C)c6c5)CC4)cc23)ccc1CNC(=O)c1noc(C(C)(C)C)n1 [Example 133, 5-tert-butyl-N-[[4-[6-[4-[4-[3-(2,4-dioxohexahydropyrimidin-1-yl)-1-methyl-indazol-6-yl]-1-piperidyl]butyl]pyrrolo[2,1-f][1,2,4]triazin-4-yl]-2-methyl-phenyl]methyl]-1,2,4-oxadiazole-3-carboxamide] | < 0.1
CC(C)(C)c1nc(C(=O)NCc2ccc(-c3ncnn4cc(CCCCN5CCC(c6ccc(NC7CCC(=O)NC7=O)cn6)CC5)cc34)cc2F)no1 (stereo not drawn) [Example 134, 5-tert-butyl-N-[[4-[6-[4-[4-[5-[(2,6-dioxo-3-piperidyl)amino]-2-pyridyl]-1-piperidyl]butyl]pyrrolo[2,1-f][1,2,4]triazin-4-yl]-2-fluoro-phenyl]methyl]-1,2,4-oxadiazole-3-carboxamide] | < 0.1
CC(C)(C)OC1CN(C(=O)NCc2ccc(-c3ncnn4cc(CCCCN5CCC(c6ccc(NC7CCC(=O)NC7=O)cn6)CC5)cc34)cc2F)C1 (stereo not drawn) [Example 135, 3-tert-butoxy-N-[[4-[6-[4-[4-[5-[(2,6-dioxo-3-piperidyl)amino]-2-pyridyl]-1-piperidyl]butyl]pyrrolo[2,1-f][1,2,4]triazin-4-yl]-2-fluoro-phenyl]methyl]azetidine-1-carboxamide] | < 0.1
CC(C)(C)c1nc(C(=O)NCc2ccc(-c3ncnn4cc(CCCCN5CCC(c6ccc(NC7CCC(=O)NC7=O)nc6)CC5)cc34)cc2F)no1 (stereo not drawn) [Example 138, 5-tert-butyl-N-[[4-[6-[4-[4-[6-[(2,6-dioxo-3-piperidyl)amino]-3-pyridyl]-1-piperidyl]butyl]pyrrolo[2,1-f][1,2,4]triazin-4-yl]-2-fluoro-phenyl]methyl]-1,2,4-oxadiazole-3-carboxamide] | < 0.1
CC(C)(C)c1nc(C(=O)NCc2ccc(-c3ncnn4cc(CCCCN5CCC(c6ccc(C7(C)CCC(=O)NC7=O)cc6)CC5)cc34)cc2F)no1 (stereo not drawn) [Example 140, 5-tert-butyl-N-[[2-fluoro-4-[6-[4-[4-[4-(3-methyl-2,6-dioxo-3-piperidyl)phenyl]-1-piperidyl]butyl]pyrrolo[2,1-f][1,2,4]triazin-4-yl]phenyl]methyl]-1,2,4-oxadiazole-3-carboxamide] | < 0.1
Cc1cc(-c2ncnn3cc(C4CC4CN4CCC(c5ccc(NC6CCC(=O)NC6=O)cc5)CC4)cc23)ccc1CNC(=O)c1noc(C(C)(C)C)n1 (stereo not drawn) [Example 145, 5-tert-butyl-N-[[4-[6-[2-[[4-[4-[(2,6-dioxo-3-piperidyl)amino]phenyl]-1-piperidyl]methyl]cyclopropyl]pyrrolo[2,1-f][1,2,4]triazin-4-yl]-2-methyl-phenyl]methyl]-1,2,4-oxadiazole-3-carboxamide] | < 0.1
Cc1cc(-c2ncnn3cc(-c4ccc(N5CCC(c6ccc(C7CCC(=O)NC7=O)cc6)CC5)cc4)cc23)ccc1CNC(=O)c1noc(C(C)(C)C)n1 (stereo not drawn) [Example 146, 5-tert-butyl-N-[[4-[6-[4-[4-[4-(2,6-dioxo-3-piperidyl)phenyl]-1-piperidyl]phenyl]pyrrolo[2,1-f][1,2,4]triazin-4-yl]-2-methyl-phenyl]methyl]-1,2,4-oxadiazole-3-carboxamide] | 0.1 to 0.5
Cc1cc(-c2ncnn3cc(-c4ccc(CCCCc5ccc(NC6CCC(=O)NC6=O)cc5)cc4)cc23)ccc1CNC(=O)c1noc(C(C)(C)C)n1 (stereo not drawn) [Example 149, 5-tert-butyl-N-[[4-[6-[4-[4-[4-[(2,6-dioxo-3-piperidyl)amino]phenyl]butyl]phenyl]pyrrolo[2,1-f][1,2,4]triazin-4-yl]-2-methyl-phenyl]methyl]-1,2,4-oxadiazole-3-carboxamide] | 0.1 to 0.5
Cc1cc(-c2ncnn3cc(-c4ccc(CN(C)CC(F)(F)Cc5ccc(NC6CCC(=O)NC6=O)cc5)cc4)cc23)ccc1CNC(=O)c1noc(C(C)(C)C)n1 (stereo not drawn) [Example 150, 5-tert-butyl-N-[[4-[6-[4-[[[3-[4-[(2,6-dioxo-3-piperidyl)amino]phenyl]-2,2-difluoro-propyl]-methyl-amino]methyl]phenyl]pyrrolo[2,1-f][1,2,4]triazin-4-yl]-2-methyl-phenyl]methyl]-1,2,4-oxadiazole-3-carboxamide] | 0.1 to 0.5

The next lines start with the values.

DC50 [µM] | SMILES
< 0.1 | Cc1cc(-c2ncnn3cc(CCCCN4CCC(c5ccc(C6CCC(=O)NC6=O)cc5)CC4)cc23)ccc1CNC(=O)c1noc(C(C)(C)C)n1 (stereo not drawn) [Example 128, 5-tert-butyl-N-[[4-[6-[4-[4-[4-(2,6-dioxo-3-piperidyl)phenyl]-1-piperidyl]butyl]pyrrolo[2,1-f][1,2,4]triazin-4-yl]-2-methyl-phenyl]methyl]-1,2,4-oxadiazole-3-carboxamide]
< 0.1 | CC(C)(C)c1nc(C(=O)NCc2ccc(-c3ncnn4cc(CCCCN5CCC(c6c(F)cc(C7CCC(=O)NC7=O)cc6F)CC5)cc34)cc2F)no1 (stereo not drawn) [Example 136, 5-tert-butyl-N-[[4-[6-[4-[4-[4-(2,6-dioxo-3-piperidyl)-2,6-difluoro-phenyl]-1-piperidyl]butyl]pyrrolo[2,1-f][1,2,4]triazin-4-yl]-2-fluoro-phenyl]methyl]-1,2,4-oxadiazole-3-carboxamide]
< 0.1 | CC(C)(C)c1nc(C(=O)NCc2ccc(-c3ncnn4cc(CCCCN5CCC(n6ccc(NC7CCC(=O)NC7=O)n6)CC5)cc34)cc2F)no1 (stereo not drawn) [Example 137, 5-tert-butyl-N-[[4-[6-[4-[4-[3-[(2,6-dioxo-3-piperidyl)amino]pyrazol-1-yl]-1-piperidyl]butyl]pyrrolo[2,1-f][1,2,4]triazin-4-yl]-2-fluoro-phenyl]methyl]-1,2,4-oxadiazole-3-carboxamide]
< 0.1 | CC(C)(C)c1nc(C(=O)NCc2ccc(-c3ncnn4cc(CCCCN5CCN(c6ccc(NC7CCC(=O)NC7=O)cn6)CC5)cc34)cc2F)no1 (stereo not drawn) [Example 139, 5-tert-butyl-N-[[4-[6-[4-[4-[5-[(2,6-dioxo-3-piperidyl)amino]-2-pyridyl]piperazin-1-yl]butyl]pyrrolo[2,1-f][1,2,4]triazin-4-yl]-2-fluoro-phenyl]methyl]-1,2,4-oxadiazole-3-carboxamide]
< 0.1 | Cc1cc(-c2ncnn3cc(COCCN4CCC(c5ccc(NC6CCC(=O)NC6=O)cc5)CC4)cc23)ccc1CNC(=O)c1noc(C(C)(C)C)n1 (stereo not drawn) [Example 143, 5-tert-butyl-N-[[4-[6-[2-[4-[4-[(2,6-dioxo-3-piperidyl)amino]phenyl]-1-piperidyl]ethoxymethyl]pyrrolo[2,1-f][1,2,4]triazin-4-yl]-2-methyl-phenyl]methyl]-1,2,4-oxadiazole-3-carboxamide]
< 0.1 | Cc1cc(-c2ncnn3cc(COCCN4CCC(c5ccc(C6CCC(=O)NC6=O)cc5)CC4)cc23)ccc1CNC(=O)c1noc(C(C)(C)C)n1 (stereo not drawn) [Example 144, 5-tert-butyl-N-[[4-[6-[2-[4-[4-(2,6-dioxo-3-piperidyl)phenyl]-1-piperidyl]ethoxymethyl]pyrrolo[2,1-f][1,2,4]triazin-4-yl]-2-methyl-phenyl]methyl]-1,2,4-oxadiazole-3-carboxamide]
0.1 to 0.5 | Cc1cc(-c2ncnn3cc(-c4ccc(COCCCc5ccc(NC6CCC(=O)NC6=O)cc5)cc4)cc23)ccc1CNC(=O)c1noc(C(C)(C)C)n1 (stereo not drawn) [Example 147, 5-tert-butyl-N-[[4-[6-[4-[3-[4-[(2,6-dioxo-3-piperidyl)amino]phenyl]propoxymethyl]phenyl]pyrrolo[2,1-f][1,2,4]triazin-4-yl]-2-methyl-phenyl]methyl]-1,2,4-oxadiazole-3-carboxamide]
0.1 to 0.5 | Cc1cc(-c2ncnn3cc(CCCCN4CC(c5ccc(NC6CCC(=O)NC6=O)cc5)C4)cc23)ccc1CNC(=O)c1noc(C(C)(C)C)n1 (stereo not drawn) [Example 148, 5-tert-butyl-N-[[4-[6-[4-[3-[4-[(2,6-dioxo-3-piperidyl)amino]phenyl]azetidin-1-yl]butyl]pyrrolo[2,1-f][1,2,4]triazin-4-yl]-2-methyl-phenyl]methyl]-1,2,4-oxadiazole-3-carboxamide]
